Results published in publication PMC10703812, “Understanding the molecular mechanisms of odorant binding and activation of the human OR52 family” (Nature Communications, 2023).
Where “and” joins values, the source holds several entries; their conditions need not be identical. Identical values can stand only once.

How the values were obtained:
Format in all cases: cell-based, human
[1] = test system: OR52cs R265A; assay: CRE luciferase assay in Hana3A cells, mutant; conditions: 100 µM carboxylic acid; Fig.S7a, single experiments
Description: (§1) For cAMP assay, CRE luciferase assay, and surface ELISA, the full-length OR52cs construct was cloned into the pcDNA3.1 vector. The Lucy signal sequence and FLAG peptide sequence were added to the N-terminus. Mutant constructs were generated by site-directed mutagenesis. For BRET assay, eYFP was added at the C-terminus of OR52cs with a GGGGS linker. Rluc was added to Gα for resonance partner (after L99 for Gαs, and I100 for Gαolf, respectively, with GGGGS linker back and forth).
48 h after infection, cells were treated with odorants and incubated at 37 °C for 4 h. […] All values were divided by the Renilla luciferase activity to normalize the effect of cell confluence. All data were analyzed using GraphPad Prism 9.4.1.

[2] = test system: OR52cs; assay: cAMP signaling assay (cAMP sensor) in Hana3A cells
Description: For cAMP assay, CRE luciferase assay, and surface ELISA, the full-length OR52cs construct was cloned into the pcDNA3.1 vector. The Lucy signal sequence and FLAG peptide sequence were added to the N-terminus. Mutant constructs were generated by site-directed mutagenesis. For BRET assay, eYFP was added at the C-terminus of OR52cs with a GGGGS linker. Rluc was added to Gα for resonance partner (after L99 for Gαs, and I100 for Gαolf, respectively, with GGGGS linker back and forth). […]
(§2) Hana3A cells were seeded on 96-well white microplates and transfected with OR52cs or the corresponding mutants and cAMP sensor (Promega). The medium was exchanged with CO2-independent medium (Gibco) supplemented with 0.375 mg ml^−1 D-luciferin (Nanolight) 48 h after infection, and cells were incubated in the dark at 20 °C for 2 h. Basal luminescence was detected using a Tristar 2 LB 942 multimode reader (Berthold) until it reached a plateau. Subsequently, various concentrations of odorants and forskolin (Sigma-Aldrich) were added to each well, and luminescence was measured again. Data were analyzed and plotted using GraphPad Prism 9.4.1.

[3] = test system: OR52cs F253A; assay: cAMP signaling assay, mutant; set-up: cAMP response: scale not given here; conditions: for cAMP response: Fig.S13b source data, single experiments
Description: as §1, §2

[4] = test system: OR52cs Y254A; assay: cAMP signaling assay, mutant; set-up: cAMP response: scale not given here; conditions: for cAMP response: Fig.S13b source data, single experiments
Description: as §1, §2

[5] = test system: OR52cs H264A; assay: cAMP signaling assay, mutant; set-up: cAMP response: scale not given here; conditions: for cAMP response: Fig.S13b source data, single experiments
Description: as §1, §2

[6] = test system: OR52cs S114A; assay: cAMP signaling assay, mutant; set-up: cAMP response: scale not given here; conditions: for cAMP response: Fig.S13b source data, single experiments
Description: as §1, §2

[7] = test system: OR52cs F161A; assay: cAMP signaling assay, mutant; set-up: cAMP response: scale not given here; conditions: for cAMP response: Fig.3d source data, single experiments
Description: as §1, §2

[8] = test system: OR52cs F261A; assay: cAMP signaling assay, mutant; set-up: cAMP response: scale not given here; conditions: for cAMP response: Fig.3d source data, single experiments
Description: as §1, §2

[9] = test system: OR52cs H275A; assay: cAMP signaling assay, mutant; set-up: cAMP response: scale not given here; conditions: for cAMP response: Fig.S13b source data, single experiments
Description: as §1, §2

[10] = test system: OR52cs T110A; assay: cAMP signaling assay, mutant; set-up: cAMP response: scale not given here; conditions: for cAMP response: Fig.3d source data, single experiments
Description: as §1, §2

[11] = test system: OR52cs I208A; assay: cAMP signaling assay, mutant; set-up: cAMP response: scale not given here; conditions: for cAMP response: Fig.3d source data, single experiments
Description: as §1, §2

[12] = test system: OR52cs; assay: CRE luciferase assay in Hana3A cells; conditions: Fig.S7b, single experiments
Description: as §1
Hana3A cells were seeded on 96-well white microplates (SPL) and transfected with plasmids encoding CRE-luciferase, OR52cs or R265^6.59A mutant, Renilla luciferase, RTP1S, and Ric8b at a […] ratio 24 h after seeding. 48 h after infection, cells were treated with odorants and incubated at 37 °C for 4 h. Luminescence was measured using a Tristar 2 LB 942 multimode reader (Berthold). All values were divided by the Renilla luciferase activity to normalize the effect of cell confluence. All data were analyzed using GraphPad Prism 9.4.1.

CCCCCCCC(=O)O [Octanoate, octanoic acid]
relative fold (luciferase activity over DMSO) [1]: 1.143 fold and 0.8826 fold and 1.532 fold and 1.19 fold | EC50 ([2]; Supplementary Fig. 13b): 7 µM | X-fold over OR52cs (relative fold of EC50) ([2]; Supplementary Table 3): 1 | EC50 ([2]; Supplementary Table 3, N=5): 7.9 µM | pEC50 ± SEM ([2]; Supplementary Table 3, N=5): 5.230 ± 0.107 | cAMP response ([2]; odorant 9.18274e-8 M, Fig.S11a source data, single experiments): 5.085 and 3.831 and 4.775 and 5.026 | cAMP response ([2]; odorant 9.18274e-7 M, Fig.S11a source data, single experiments): 14.274 and 13.5525 and 12.3756 and 13.817 | cAMP response ([2]; odorant 9.18274e-6 M, Fig.S11a source data, single experiments): 55.4145 and 67.6331 and 64.1017 and 55.2862 | cAMP response ([2]; odorant 3.0303e-5 M, Fig.S11a source data, single experiments): 86.9919 and 78.2813 and 84.5166 and 65.845 | cAMP response ([2]; odorant 0.0001 M, Fig.1a source data, single experiments): 127.982 and 109.844 and 107.02 and 115.524 and 104.582 | cAMP response ([2]; odorant 0.0001 M, Fig.S11a source data, single experiments): 98.5501 and 101.54 and 117.496 and 98.6522 | cAMP response (raw signal) upon OCA treatment ([2]; odorant 0.001 M (1 mM OCA), Fig.S11a left, single experiments, listed as Octanotae): 146668 and 160587 and 152997 and 131980 | cAMP response ([2]; odorant 0.001 M, Fig.1a source data, single experiments): 103.349 and 98.3823 and 101.697 and 99.3544 and 97.2175 | cAMP response ([2]; odorant 0.001 M, Fig.S11a source data, single experiments): 95.2215 and 104.803 and 111.594 and 89.2504 | EC50 ([3]; Supplementary Fig. 13b): 219 µM | cAMP response ([3]; odorant 9.18274e-8 M): 0.6755 and 1.259 and 1.115 | cAMP response ([3]; odorant 9.18274e-7 M): 1.327 and 1.6492 and 1.457 | cAMP response ([3]; odorant 9.18274e-6 M): 3.718 and 4.351 and 3.597 | cAMP response ([3]; odorant 3.0303e-5 M): 11.1366 and 13.9484 and 11.2845 | cAMP response ([3]; odorant 0.0001 M): 38.3735 and 42.0381 and 35.9654 | cAMP response ([3]; odorant 0.001 M): 106.487 and 105.397 and 81.8862 | EC50 ([4]; Supplementary Fig. 13b): 0.6 µM | cAMP response ([4]; odorant 9.18274e-8 M): 3.215 and 2.4896 and 3.9476 | cAMP response ([4]; odorant 9.18274e-7 M): 17.867 and 17.7491 and 20.6138 | cAMP response ([4]; odorant 9.18274e-6 M): 27.7636 and 29.4886 and 28.529 | cAMP response ([4]; odorant 3.0303e-5 M): 29.9943 and 28.2884 and 30.9686 | cAMP response ([4]; odorant 0.0001 M): 31.1114 and 30.9026 and 31.9237 | cAMP response ([4]; odorant 0.001 M): 30.3248 and 30.6953 and 33.5912 | EC50 ([5]; Supplementary Fig. 13b): 60 µM | cAMP response ([5]; odorant 9.18274e-6 M): 4.615 and 4.081 and 4.27 | cAMP response ([5]; odorant 3.0303e-5 M): 14.0038 and 11.3214 and 12.3984 | cAMP response ([5]; odorant 0.0001 M): 28.5965 and 25.2729 and 26.8638 | cAMP response ([5]; odorant 0.001 M): 40.8869 and 35.5267 and 36.771 | EC50 ([6]; Supplementary Fig. 13b): 54 µM | cAMP response ([6]; odorant 9.18274e-7 M): 0.7937 and 0.8194 and 1.08 | cAMP response ([6]; odorant 9.18274e-6 M): 9.728 and 8.57 and 11.8154 | cAMP response ([6]; odorant 3.0303e-5 M): 42.675 and 40.9596 and 54.3071 | cAMP response ([6]; odorant 0.0001 M): 71.9561 and 66.6762 and 91.932 | cAMP response ([6]; odorant 0.001 M): 103.979 and 112.532 and 126.832 | X-fold over OR52cs (relative fold of EC50) ([7]; Supplementary Table 3): 5.3 | EC50 ([7]; Supplementary Table 3, N=3): 42 µM | pEC50 ± SEM ([7]; Supplementary Table 3, N=3): 4.214 ± 0.075 | cAMP response ([7]; odorant 3.0303e-5 M): 40.1826 and 27.0053 and 36.2901 | cAMP response ([7]; odorant 0.0001 M): 77.0461 and 49.0263 and 69.6028 | cAMP response ([7]; odorant 0.001 M): 102.629 and 63.8026 and 79.1192 | downstream signaling (in words) ([8]; Fig. 3d): significantly reduced downstream signaling | X-fold over OR52cs (relative fold of EC50) ([8]; Supplementary Table 3): 64.0 | EC50 ([8]; Supplementary Table 3, N=3): 506 µM | pEC50 ± SEM ([8]; Supplementary Table 3, N=3): 3.326 ± 1.547 | cAMP response ([8]; odorant 9.18274e-7 M): 3.451 and 3.066 and 1.971 | cAMP response ([8]; odorant 3.0303e-5 M): 5.756 and 6.219 and 11.0254 | cAMP response ([8]; odorant 0.001 M): 66.0962 and 58.1347 and 77.5545 | EC50 ([9]; Supplementary Fig. 13b): 67 µM | cAMP response ([9]; odorant 9.18274e-7 M): 1.163 and 1.2177 and 0.8093 | cAMP response ([9]; odorant 9.18274e-6 M): 12.1088 and 9.48 and 7.718 | cAMP response ([9]; odorant 3.0303e-5 M): 33.8567 and 32.1825 and 24.2227 | cAMP response ([9]; odorant 0.0001 M): 62.7151 and 60.5238 and 53.5809 | cAMP response ([9]; odorant 0.001 M): 101.549 and 94.9309 and 77.7131 | X-fold over OR52cs (relative fold of EC50) ([10]; Supplementary Table 3): 2.9 | EC50 ([10]; Supplementary Table 3, N=3): 22.7 µM | pEC50 ± SEM ([10]; Supplementary Table 3, N=3): 4.293 ± 0.098 | cAMP response ([10]; odorant 3.0303e-5 M): 45.9718 and 31.6697 and 55.6315 | cAMP response ([10]; odorant 0.0001 M): 55.3228 and 56.0506 and 78.0827 | cAMP response ([10]; odorant 0.001 M): 63.5049 and 61.123 and 88.9664 | X-fold over OR52cs (relative fold of EC50) ([11]; Supplementary Table 3): 0.65 | EC50 ([11]; Supplementary Table 3, N=3): 5.1 µM | pEC50 ± SEM ([11]; Supplementary Table 3, N=3): 5.321 ± 0.119 | cAMP response ([11]; odorant 9.18274e-7 M): 9.649 and 7.873 and 7.984 | cAMP response ([11]; odorant 9.18274e-6 M): 74.2921 and 59.9569 | cAMP response ([11]; odorant 3.0303e-5 M): 118.216 and 87.9298 and 99.5696 | cAMP response ([11]; odorant 0.0001 M): 123.062 and 85.14 and 99.773 | cAMP response ([11]; odorant 0.001 M): 115.233 and 86.0111 and 85.4934 | relative fold of CRE luciferase activity ([12]; odorant 10 μM): 1.744 fold and 2.175 fold and 2.388 fold and 2.247 fold | relative fold of CRE luciferase activity ([12]; odorant 50 μM): 4.124 fold and 3.914 fold and 5.3918 fold and 4.986 fold | relative fold of CRE luciferase activity ([12]; odorant 100 μM): 4.893 fold and 4.461 fold and 6.103 fold and 6.04 fold | relative fold of CRE luciferase activity ([12]; odorant 250 μM): 5.851 fold and 4.875 fold and 6.831 fold and 6.812 fold | relative fold of CRE luciferase activity ([12]; odorant 500 μM): 8.532 fold and 7.359 fold and 7.746 fold and 7.343 fold
